Results: patent US5760001A, “Cytokine restraining agents and methods of use in pathologies and conditions associated with altered cytokine levels” (Trega Biosciences, Inc., priority 1995, dated 1998)
“And” between values parts separate entries of the source, which are not always exact repeats. Equal values may be shown once. Square brackets hold non-standard residues; d marks the D form. Peptide text beside a SMILES is read from it.

Legend:
Male Shelton rabbits = test: Morphine-induced respiratory depression; type: in vivo; settings: 10 + 20 + 20 μg/kg/rabbit iv; at end of experiment (80 min)
Procedure: Male Shelton rabbits (3-4 kg) were restrained and fitted around the thorax, just behind the front limbs, with a respiration transducer (Model F-RCT; Grass Instruments; Quincy Mass.). The transducer was connected to a grass polygraph via an EKG cable. An intravenous line was established for drug administration by cannulating the marginal ear vein using a 25G butterfly needle.
Rabbit breathing was allowed to stabilize, then. morphine sulfate (2 mg/kg in 0.5 ml saline) was administered by intravenous (iv) injection and respiratory rate and depth were monitored for 10 min. A second dose of morphine was administered, then, after 10 min, EX-2 or EX-3 (10 μg/kg in 0.5 ml saline) was administered, iv, and rabbits were monitored for 20 min. Two additional doses of EX-2 or EX-3 (20 μg/kg in 1.0 ml saline) were administered at 20 min intervals, i.e., 40 min and 60 min after the first morphine injection.
Results were calculated as the percent change from baseline values and are expressed as the difference of the mean value of the treated group minus the mean value of the control group at the end of the experiment (80 min).

adult female Balb/c mice [1] = test: LPS-induced lethality (IP dosing); type: in vivo; settings: 11 × 300 μg/mouse IP (3.3 mg), every 4 hr; 0.6 mg LPS; vs control mice
Procedure: These experiments were performed based on information reported by Rivier et al., Endocrinology 125:2800-2805 (1989), which is incorporated herein by reference. Adult female Balb/c mice were provided food and water ad libitum. Mice were injected IP every four hr for 40 hr with 30 to 300 μg EX-2, EX-3 or EX-4 in 0.2 ml saline (treated group) or with 0.2 ml saline, alone (control group) (10 mice per group). Immediately following the first injection, 0.6 mg LPS endotoxin in 0.2 ml saline was administered to each mouse. Following LPS injection, EX-2 or saline was administered to the treated mice or the control mice, respectively, every 4 hr for 36 hr.

TNF-α [2] = test: LPS-induced TNF-α levels, oral (gavage) dosing; type: in vivo, mice
Procedure: The ability of orally administered cytokine restraining agents to reduce LPS-induced TNF-α levels also was examined. Balb/c female mice (20 g) were administered 150 μg or 300 μg EX-2, EX-3, EX-5 or EX-6 in 100 μl saline by gavage. Control mice received 100 μl saline, alone. One mn later, 0.1 mg LPS was administered by IP injection. Samples were collected and TNF-α levels were determined as described in Example III, above.
The mean TNF-α levels in the mice from each group (n=9-20) was determined and the percent reduction in TNF-α levels was calculated.

female Balb/c mice = test: Arachidonic acid-induced ear swelling; type: in vivo; settings: 100 μg/mouse IP 30 min prior to AA; 60 min after AA application
Procedure: Experiments were performed using female Balb/c mice weighing 18-23 grams. Saline or 100 μg EX-2 or EX-3 was administered IP, 30 min prior to topical application of arachidonic acid (AA). A 10 μl pipet was used to apply 10 μl AA solution (100 mg/ml ethanol; Calbiochem-Novabiochem; San Diego Calif.) to the inner and outer surfaces of the right ear of each mouse. Ten μl ethanol, alone, was applied to the inner and outer surface of the left ear of each mouse.
Ear thickness was measured with a hand-held spring loaded caliper immediately before and 60 min after AA application. Increase in ear thickness was calculated by subtracting the change observed in the control ear from the change observed in AA-treated ear. The value for each group (saline and control) is the average of the swelling observed in the individual mice in each group. The percent reduction of swelling is based on the swelling observed in the saline control group.

adult female Balb/c mice [3] = test: Carageenan-induced paw swelling; type: in vivo; settings: 1 μg/mouse; measured at the 2 hr time point
Procedure: Carageenan-induced paw swelling was induced using a modification of the methods of Hiltz and Lipton, Peptides 11:979-982 (1990); Vinegar et al., Fed. Proc. 46:118-1.26 (1987); and Vinegar et al., J. Pharmacol. Expt. Therap. 166:96-103 (1969), each of which is incorporated herein by reference. Briefly, adult female Balb/c mice were anesthetized by IP injection of 7 mg/kg ketoamine and 0.6 mg/kg rompun. Foot pad thickness was measured using a spring loaded micrometer (Swiss Precision Instruments). Foot pad thickness was expressed in units of 1/100 inch. After baseline measurements were obtained, mice were injected into a hind foot pad with either 0.2 ml physiologic saline (control) or varying doses of EX-2 or EX-3 in 0.2 ml saline (treated). The first injection was followed immediately by injection of 0.02 ml of 0.15% κ-carageenan (Sigma Chemical Co.; St. Louis, Mo.).
Hind foot pad thickness was measured hourly for six hr, the change in thickness was determined and the percent reduction in swelling due to treatment with EX-2 was calculated.

TNF-α [4] = test: Reduction of LPS-induced TNF levels in mice (IP dosing); type: in vivo; settings: 150 μg/mouse IP before LPS 5 mg/kg IP; vs untreated control mice
Procedure: Balb/c female mice weighing approximately 20 g were placed into two groups, a control group and a treated group. Five mg/kg of LPS in 0.9% saline was administered by intraperitoneal (IP) injection into the control mice. Mice in the treated group were first injected IP with 30 μg EX-2 or 150 μg EX-3 in saline, then, one mn after EX-2 or EX-3 was administered, the mice received LPS as described for the control group.
Blood samples were collected from the orbital sinus of treated and control mice at various times up to four hr after LPS was administered. The plasma was separated by centrifugation at 3000×g for 5 min, then diluted with four volumes of 1× phosphate buffer saline (pH 7.4) containing 1% bovine serum albumin. A 100 μl sample of serum was assayed by ELISA for TNF-α (Genzyme; Cambridge Mass.).
The mean (±SEM) TNF-α level in six mice from each group was determined and the percent reduction in TNF levels was calculated.

adult female Balb/c mice [5] = test: LPS-induced lethality, oral (gavage) dosing; type: in vivo; settings: control mice 0%
Procedure: The LPS-induced lethality studies were performed based on information reported by Rivier et al., supra, 1989. Adult female Balb/c mice were provided food and water ad libitum. Mice were administered 150 μg or 300 μg EX-2, EX-3, EX-5 or EX-6 in 100 μl saline by gavage every 4 hr for 40 hr (total doses of 1.65 mg and 3.3 mg, respectively). Control mice received 100 μl saline, alone. Immediately following the first dose of cytokines restraining agent or saline, 0.6 mg LPS in 0.2 ml saline was administered by IP injection.

[6] = 300 μg by gavage before 0.1 mg LPS IP

SMILES | Inhibition of LPS-induced Lethality (increase in survival) (adult female Balb/c mice [1]) [%] | percent reduction in TNF-α levels (TNF-α [2]; [6]) [%] | Reduction in TNF levels (TNF-α [4]) [%] | further results
CC(=O)N[C@H](C(=O)N[C@@H](CCC(N)=O)C(=O)N[C@@H](Cc1c[nH]cn1)C(=O)N[C@H](Cc1ccccc1)C(=O)N[C@@H](CCCNC(=N)N)C(=O)N[C@H](Cc1c[nH]c2ccccc12)C(=O)NCC(N)=O)C1CCCCC1 [EX-3, Ac-(cyclohexyl)Gly-Gln-His-(D)Phe-Arg-(D)Trp-Gly-NH2] | 86 | 40 | 56 | Reduction in Morphine-induced Respiratory Depression (Male Shelton rabbits): 65%; percent reduction in TNF-α levels (TNF-α [2]; 150 μg by gavage before 0.1 mg LPS IP): 49%; Reduction in arachidonic acid-induced Ear Swelling (female Balb/c mice): 62%; Reduction in Carageenan-induced Paw Swelling (adult female Balb/c mice [3]): 49%
CC(=O)N[C@H](Cc1ccccc1)C(=O)N[C@@H](CCCNC(=N)N)C(=O)N[C@H](Cc1c[nH]c2ccccc12)C(N)=O [EX-4, Ac-(D)Phe-Arg-(D)Trp-NH2] | 75 | – | 53 | –
CC(=O)N[C@@H](Cc1c[nH]cn1)C(=O)N[C@H](Cc1ccccc1)C(=O)N[C@@H](CCCNC(=N)N)C(=O)N[C@H](Cc1c[nH]c2ccccc12)C(=O)NCC(N)=O [EX-5, Ac-His-(D)Phe-Arg-(D)Trp-Gly-NH2] (Ac-H[dF]R[dW]G-NH2) | – | 44 | – | increase in survival (LPS-induced lethality) (adult female Balb/c mice [5]; 3.3 mg total (300 μg every 4 hr for 40 hr)): 63% and 44%
CC(=O)N[C@@H](Cc1c[nH]cn1)C(=O)N[C@H](Cc1ccccc1)C(=O)N[C@@H](CCCNC(=N)N)C(=O)N[C@H](Cc1c[nH]c2ccccc12)C(N)=O [EX-6, Ac-His-(D)Phe-Arg-(D)Trp-NH2] | – | – | – | increase in survival (LPS-induced lethality) (adult female Balb/c mice [5]; 1.65 mg total (150 μg every 4 hr for 40 hr)): 68%
